# From US20060057071A1, “Paramagnetic complexes with pendant crown compounds showing improved targeting-specificity as MRI contrast agents” (priority 2004, published 2006)
# Where “and” joins values, the source holds several entries; their conditions need not be identical. Equal values may be shown once.
# Experiments:
# [1] = tested on: MIHA cells; assay: AO/EB staining, laser scanning confocal microscopy; type: cell-based; details: 10 μM, 1 h, 2 h, 8 h, 24 h incubation, 37° C.
# Description: MIHA cells in the absence (control) and presence of Gd-DOTA (10 μM), Gd-DO3A (10 μM), and GdL1 (10 μM) incubated at 37° C. and 5% CO2, 95% air in a humidified incubator for 1 h, 2 h, 8 h, and 24 h, respectively.
# Based on cell morphology and cell membrane integrity, normal, necrotic, and apoptotic cells can be distinguished using laser confocal microscopy. FIG. 22 gives the cell morphology in the absence and presence of Gd-DOTA (10 μM), Gd-DO3A (10 μM), and GdL1 (10 μM) at various time intervals after the incubation. In the absence or presence of the Gd^3+ complexes, the nuclei of the living cells were stained as bright blue spots in the nucleus.
# [2] = tested on: MIHA cells; assay: In vitro cytotoxicity, MTT / XTT cell proliferation assay; type: cell-based
# Description: To further investigate the potential ability of GdL1 as an NMRI contrast agent, its cytotoxicity was measured by MTT assay. The toxicity of GdL1 was determined from the dose-dependence of surviving cells after exposure to this Gd^3+ complex at different time intervals. For comparison, the cytotoxicities of Gd-DOTA and Gd-DO3A were measured under the same conditions.
# To evaluate the toxicity of prepared Gd^3+ complexes, a calorimetric assay (XTT-based) for the non-radioactive quantification of cell proliferation was applied. In the cell proliferating process, the added tetrazolium salt XTT was cleaved to a formazan dye by metabolically active cells, and the quantification of cell growth was achieved by the variation of the absorbance at 492 nm. […] Different concentrations of drugs were adjusted by performing serial dilution. The incubation period of the cell culture ranged from 1, 2, 8, and 24 hrs. XTT dye at a concentration of 5 mg/mL (sigma, St. Louis, Mo.) was added, and the plates were incubated for 12 h in a moist chamber at 37° C. The optical density was determined by eluting the dye with dimethyl sulfoxide, and the absorbance was measured at 570 nm. At least three independent experiments were performed.
# [3] = 1H NMRD profiles (water proton relaxivity); type: physicochemical; details: 20 MHz, 25° C., pH 6.9
# [4] = tested on: kidney cortex; assay: In vivo MRI, renal intensity enhancement; design: species or system rat; details: for maximal renal intensity enhancement (IE): 0.1 mmol/kg (standard dosage), first few minutes after administration
# Description: (§1) To study the MRI contrast and biodistribution behavior of gadolinium complexes […] pendant crown ethers, experiments were performed using male Sprague-Dawley (SD) rats that weighted 150-180 g, and were housed at the Wuhan Institute of Physical and Mathematics of the Chinese Academy of Sciences (Wuhan, Hubei Province, China). All procedures conformed to the institutional guidelines for animal welfare. The rat was injected via the femoral vein with 1 mL saline solution of GdL1 in concentrations of 0.1, 0.033, and 0.02 mM/kg, which are the standard dosage, one third and one fifth of the standard dosage used in clinic currently. MR imaging was performed on a 4.7 T Bruker BIO-SPEC-47/30 MRI scanner with a custom spiral surface coil. The animal was scanned in the prone position in the MRI experiment. […] The total duration of the dynamic scanning lasted up to 400 min after the administration, with an image every 4 min. A water tube was placed in the field of view as a phantom reference. The intensity enhancement (IE) of the region of interest (RI) at time point t is expressed by IE=100% (RI(t)-RI(0))/RI(0) where RI(t) corresponds to the normalized signal intensity as measured at time point, t and RI(0) is the normalized signal intensity precontrast.
# [5] = 1H NMRD profiles (water proton relaxivity); type: physicochemical; details: 25° C., pH 6.9, fits of NMRD profile and 17O NMR
# From the text: (§2) Measuring the relaxation rates of an abundant nuclear species as a function of the magnetic field over a wide range is called relaxometry. A relaxometry profile is a plot of the nuclear magnetic relaxation rate, usually 1/T1, as a function of the Larmor frequency or the magnetic field. This profile is also called a Nuclear Magnetic Resonance Dispersion (NMRD) profile. Compared with the NMRD profile, the prominent advantage of the ^17O NMR technique is that it allows the accurate determination of the water exchange rate 1/TM. This is a consequence of the oxygen nucleus being closer to the paramagnetic centre when bound in the inner-sphere, wherein the outer-sphere contributions to the relaxation rates are negligibly small. With the help of NMRD profiles, ^17O NMR measurements, and the Soloman-Bloemnergen-Morgan theory, several important parameters, such as TM, TR, TV, Δ^2 and rH, can be measured.
# Water proton nuclear magnetic resonance dispersion NMRD profile is used to record the longitudinal water proton relaxation rates as a function of magnetic fields. The method is, in principle, sensitive to all of the parameters that influence relaxivity. The ^1H NMRD profiles were measured over a continuum of magnetic field strength from 0.00024 to 0.24 T (corresponding to 0.01-10 MHz proton Larmor frequency, 1 T≈41.7 MHz) on a Spinmaster FFC (Stelar, Mede (PV)), which is a fast field-cycling NMR relaxometer installed at the LIMA Laboratory (Bioindustry Park, Ivrea (TO), Italy). The relaxometer worked under complete control with an absolute uncertainty in 1/T1 of ±2%. The NMRD profiles were measured using 1-2 mM solutions of the complexes.
# [6] = tested on: liver parenchyma; assay: In vivo MRI, hepatic intensity enhancement; design: species or system rat; details: for maximal hepatic IE: rat
# Description: as §1
# [7] = Variable-temperature 17O NMR transverse relaxation rate; type: physicochemical; details: for water exchange rate kex^298 / TM: 25° C.; for TM: pH 6.9, derived from VT 17O NMR spectroscopy; for exchange lifetime TM of inner-sphere coordinated water: 298 K (25° C.)
# From the text: as §2
# The variable-temperature ^17O NMR measurements were recorded on a JEOL EX-90 (2.1 T) spectrometer that was equipped with a 5 mm probe, by using a D2O external lock. The experimental settings were: spectral width of 10000 Hz, pulse width of 7 μs, acquisition time of 10 ms, 1000 scans, and no sample spinning. Solutions containing 2.6% of ^17O isotope were used. The observed transverse relaxation rates (R2obs^O) were calculated from the signal width at half height.
# [8] = cited from earlier work
# [9] = 298 K; cited from earlier work
SMILES,cell morphology (apoptotic or necrotic cells) [1],proton relaxivity r1 (r1p) [3],maximal renal intensity enhancement (IE) ([4]; rat),D [5],TR [5],TV [5],a [5],q [5],r [5],Δ^2 [5],time after administration of maximal hepatic IE ([6]; 0.1 mmol/kg),maximal hepatic IE ([6]; 0.1 mmol/kg (standard dosage)),time after administration of maximal hepatic IE ([6]; 0.033 (0.03) mmol/kg),maximal hepatic IE ([6]; 0.033 (0.03) mmol/kg),water exchange rate kex^298 [7],TM [7],exchange lifetime TM of inner-sphere coordinated water ([7]; 2.12 T),further results
"O=C([O-])CN1CCN(CCN2CCOCCOCCOCCOCC2)CCN(CC(=O)[O-])CCN(CC(=O)[O-])CC1.[Gd+3] [GdL1, Gd^3+ Complex of L1]",no obvious apoptotic or necrotic cells were found,9.65 mM⁻¹ s⁻¹,~200%,2.24E-5 cm^2s^−1,146 ps,13 ps,4.0 Å,2,2.98 Å,8e+19 s⁻¹,90 to 100 min,105%,60 to 100 min,90%,1.82e+07 s⁻¹,55 ns,55 ns,"viability of the cells ([2]; 1×10^−5 mol L^−1 to 1×10^−2 mol L^−1, 1 h, 2 h, 8 h, 24 h incubation): above 90%; effect on cell viability / cytotoxicity ([2]; up to 1×10^−2 M, up to 24 h incubation): not affected obviously; resident lifetime in renal tissue ([4]; 0.1 mmol/kg): > 3 h; renal IE preserved 250 minutes after injection ([4]; 0.1 mmol/kg, 250 min): 40%; kidney contrast enhancement two hours after the injection ([4]; 0.1 mmol/kg, two hours): faint contrast enhancement could still be observed; maximal renal IE ([4]; 0.033 (0.03) mmol/kg, one third of standard dose, rat): 123% and 120%; time for which strong renal intensity enhancement is maintained ([4]; summary statement): more than four hours; time after administration of maximal hepatic IE ([6]; 0.02 mmol/kg): 60 min; hepatic IE maintained after 3 h ([6]; 0.02 mmol/kg, 3 h): over 40%; hepatic IE a few minutes after the injection ([6]; 0.03 mmol/kg): about 50%; hepatic IE persisting after 320 min ([6]; 0.03 mmol/kg, 320 min): 50%; time for which high hepatic IE stays on a plateau ([6]; 0.033 mmol/kg): more than 4 h; hepatic IE level on plateau ([6]; 0.033 mmol/kg, more than 4 h after administration): > 60%; resident lifetime in hepatic tissues ([6]; 0.1 mmol/kg): > 4 h; time after administration at which obvious enhancement of the liver was monitored ([6]; 0.1 mmol/kg): 30 min; time for which strong/high hepatic IE was maintained ([6]; 0.1 mmol/kg): more than 4 h; time for which strong hepatic intensity enhancement is maintained ([6]; summary statement): more than four hours; temperature at which R2p attains its maximum ([7]; 2.12 T, range 273-340 K): ~270 K"
"O=C([O-])CN1CCN(CC(=O)[O-])CCN(CC(=O)O)CCN(CC(=O)[O-])CC1.[Gd+3] [Gd-DOTA, reference compound]",no obvious apoptotic or necrotic cells were found,4.74 mM⁻¹ s⁻¹,110% and 123%,2.24E-5 cm^2s^−1,73 ps,7.7 ps,4.0 Å,1,3.1 Å,1.3e+19 s⁻¹,30 to 40 min,70%,30 to 40 min,30%,4.1e+06 s⁻¹,300 ns,245 ns,"r1p ([8]; 20 MHz, 298 K, typical values): 4.74 mM⁻¹ s⁻¹; relaxivity ([8]; 37° C., 20 MHz): 3.4 mM⁻¹ s⁻¹; bound water molecular resident lifetime TM ([8]; 298 K, typical values): about 244 ns; thermodynamic stability log K [9]: 24.6; time after administration at which almost all renal IE was diminished ([4]; 0.1 mmol/kg, kidney cortex): 70 min; hepatic IE ([6]; 0.02 mmol/kg): no remarkable hepatic IE was detected; time after which hepatic IE faded away ([6]; 0.1 and 0.033 mmol/kg): 100 min"
